Experiments:
Type in all cases: binding
[1] = biological target: T1, CagFbFP (Q89E variant: LSSFbFP) (Chloroflexus aggregans, UniProt B8GAY9, C85A/Q89E); test: melting curve by flavin fluorescence in real-time PCR cycler; conditions: Tm of the complex, not a shift
T1 construct: gene Cagg_3753; C85A background inferred from printed I52V-A85Q and known biology
T1 sequence (B8GAY9 47-153 C85A/Q89E): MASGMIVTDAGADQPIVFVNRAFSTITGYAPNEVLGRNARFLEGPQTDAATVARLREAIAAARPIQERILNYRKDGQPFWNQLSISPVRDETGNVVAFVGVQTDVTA

[2] = biological target: T1, CagFbFP (Q89E variant: LSSFbFP); test: chromophore dissociation constant measurement, details in cited reference; crystal structure of complex
[3] = biological target: T1, CagFbFP (Q89E variant: LSSFbFP); test: melting curve by flavin fluorescence in real-time PCR cycler; conditions: Tm of the complex, not a shift; remark: listed apart in the source

Structure (SMILES)	denaturation temperature [1]	Kd [2]	thermal stability [3]
Cc1cc2nc3c(=O)[nH]c(=O)nc-3n(C[C@H](O)[C@H](O)[C@H](O)COP(=O)(O)O)c2cc1C [FMN, flavin mononucleotide]	81 °C	0.36 ± 0.05 µM	
Cc1cc2nc3[nH]c(=O)[nH]c(=O)c3nc2cc1C [LC, lumichrome]		0.9 ± 0.3 µM	58 °C

— publication doi:10.1101/2025.06.07.658458v1, “Discovery of excited state proton transfer in flavin-based fluorescent protein with large Stokes shift” (biorxiv, 2025)
